Experiments:
[1] = target: Peripheral plasma membrane protein CASK (Homo sapiens) (UniProt O14936)
[2] = target: T1, Serine/threonine-protein kinase DCLK2 (Homo sapiens) (UniProt Q8N568)
T1 sequence (whole entry): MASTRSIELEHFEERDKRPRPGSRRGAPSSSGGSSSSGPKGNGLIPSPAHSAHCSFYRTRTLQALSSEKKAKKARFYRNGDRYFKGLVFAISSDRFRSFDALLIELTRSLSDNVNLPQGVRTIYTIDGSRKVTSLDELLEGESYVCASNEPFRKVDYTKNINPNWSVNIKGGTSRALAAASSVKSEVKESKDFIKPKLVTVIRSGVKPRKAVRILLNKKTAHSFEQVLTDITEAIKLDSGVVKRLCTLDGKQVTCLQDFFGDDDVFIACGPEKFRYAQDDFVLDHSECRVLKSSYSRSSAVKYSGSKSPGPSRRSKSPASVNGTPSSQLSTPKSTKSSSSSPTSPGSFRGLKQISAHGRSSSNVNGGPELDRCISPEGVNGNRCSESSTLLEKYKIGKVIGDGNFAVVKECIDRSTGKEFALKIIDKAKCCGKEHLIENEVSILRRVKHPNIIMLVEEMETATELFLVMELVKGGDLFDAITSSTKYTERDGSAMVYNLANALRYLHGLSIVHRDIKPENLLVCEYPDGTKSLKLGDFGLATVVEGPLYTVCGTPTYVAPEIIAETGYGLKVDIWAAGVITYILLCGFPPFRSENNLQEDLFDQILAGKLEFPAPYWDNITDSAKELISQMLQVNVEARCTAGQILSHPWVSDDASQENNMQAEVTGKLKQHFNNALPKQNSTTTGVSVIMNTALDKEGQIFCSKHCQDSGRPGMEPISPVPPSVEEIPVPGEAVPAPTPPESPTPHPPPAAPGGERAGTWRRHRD

[3] = target: Ephrin type-A receptor 2 (Homo sapiens) (UniProt P29317)
Chain of Ephrin type-A receptor 2 (Homo sapiens) (P29317 whole entry): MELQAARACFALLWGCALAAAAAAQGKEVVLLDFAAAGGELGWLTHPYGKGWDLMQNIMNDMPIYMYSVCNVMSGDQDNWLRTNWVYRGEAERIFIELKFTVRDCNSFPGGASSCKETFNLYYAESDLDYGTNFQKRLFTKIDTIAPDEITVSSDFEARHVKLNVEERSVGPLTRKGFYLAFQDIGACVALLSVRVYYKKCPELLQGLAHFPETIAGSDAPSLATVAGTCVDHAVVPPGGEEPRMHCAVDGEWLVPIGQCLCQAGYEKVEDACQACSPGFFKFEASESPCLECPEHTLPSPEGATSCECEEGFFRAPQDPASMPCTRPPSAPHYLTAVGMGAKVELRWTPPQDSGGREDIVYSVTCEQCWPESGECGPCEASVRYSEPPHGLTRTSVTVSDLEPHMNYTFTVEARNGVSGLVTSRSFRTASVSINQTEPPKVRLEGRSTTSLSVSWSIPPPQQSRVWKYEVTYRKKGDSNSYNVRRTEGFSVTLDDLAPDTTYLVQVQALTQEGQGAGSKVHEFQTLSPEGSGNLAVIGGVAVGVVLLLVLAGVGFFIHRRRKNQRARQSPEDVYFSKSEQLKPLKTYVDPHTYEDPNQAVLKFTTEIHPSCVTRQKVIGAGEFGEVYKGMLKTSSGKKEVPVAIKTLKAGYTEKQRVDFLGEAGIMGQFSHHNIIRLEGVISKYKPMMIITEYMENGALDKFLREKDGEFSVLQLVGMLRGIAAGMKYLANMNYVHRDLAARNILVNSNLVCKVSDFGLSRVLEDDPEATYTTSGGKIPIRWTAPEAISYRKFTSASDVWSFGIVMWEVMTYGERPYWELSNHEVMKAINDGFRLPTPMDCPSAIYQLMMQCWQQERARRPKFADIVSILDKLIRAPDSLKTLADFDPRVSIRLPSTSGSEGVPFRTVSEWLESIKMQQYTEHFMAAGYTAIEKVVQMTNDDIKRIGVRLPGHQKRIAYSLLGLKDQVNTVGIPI

[4] = target: T2, Rhodopsin kinase GRK7 (Homo sapiens) (UniProt Q8WTQ7)
T2 sequence (whole entry): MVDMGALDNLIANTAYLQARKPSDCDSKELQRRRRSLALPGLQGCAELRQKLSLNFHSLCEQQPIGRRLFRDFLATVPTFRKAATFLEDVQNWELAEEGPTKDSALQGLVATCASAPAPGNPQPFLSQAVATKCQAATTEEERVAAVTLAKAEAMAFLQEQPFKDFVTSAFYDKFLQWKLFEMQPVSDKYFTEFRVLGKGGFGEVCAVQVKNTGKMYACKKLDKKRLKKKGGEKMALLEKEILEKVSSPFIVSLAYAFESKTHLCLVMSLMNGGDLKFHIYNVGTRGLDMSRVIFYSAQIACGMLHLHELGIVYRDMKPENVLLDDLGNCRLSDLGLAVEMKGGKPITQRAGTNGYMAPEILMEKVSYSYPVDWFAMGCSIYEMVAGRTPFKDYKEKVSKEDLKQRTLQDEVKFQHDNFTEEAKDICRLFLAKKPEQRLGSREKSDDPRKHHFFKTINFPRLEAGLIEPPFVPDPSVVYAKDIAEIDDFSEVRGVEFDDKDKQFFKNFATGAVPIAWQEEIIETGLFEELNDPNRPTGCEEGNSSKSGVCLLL

[5] = target: Interleukin-1 receptor-associated kinase 1 (Homo sapiens) (UniProt P51617)
Chain of Interleukin-1 receptor-associated kinase 1 (Homo sapiens) (P51617 whole entry, looked up): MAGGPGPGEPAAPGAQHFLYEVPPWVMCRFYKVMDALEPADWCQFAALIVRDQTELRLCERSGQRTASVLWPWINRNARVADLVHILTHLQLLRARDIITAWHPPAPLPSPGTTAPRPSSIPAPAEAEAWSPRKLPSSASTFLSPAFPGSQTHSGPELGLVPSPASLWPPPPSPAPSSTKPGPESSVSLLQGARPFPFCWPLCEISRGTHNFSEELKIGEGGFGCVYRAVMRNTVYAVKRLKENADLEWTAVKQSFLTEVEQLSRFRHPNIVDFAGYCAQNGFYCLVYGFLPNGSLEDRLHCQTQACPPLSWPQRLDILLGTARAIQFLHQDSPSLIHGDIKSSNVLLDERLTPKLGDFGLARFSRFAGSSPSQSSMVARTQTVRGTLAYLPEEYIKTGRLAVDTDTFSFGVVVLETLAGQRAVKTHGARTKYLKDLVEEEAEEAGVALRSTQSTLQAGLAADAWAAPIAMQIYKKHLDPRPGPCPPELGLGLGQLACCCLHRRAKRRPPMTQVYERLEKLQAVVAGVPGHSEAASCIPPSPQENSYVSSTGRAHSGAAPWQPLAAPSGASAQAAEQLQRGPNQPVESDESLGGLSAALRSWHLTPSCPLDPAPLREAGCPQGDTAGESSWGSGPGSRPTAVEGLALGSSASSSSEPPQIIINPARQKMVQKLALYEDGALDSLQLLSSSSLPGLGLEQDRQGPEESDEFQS

[6] = target: Serine/threonine-protein kinase PAK 5 (Homo sapiens) (UniProt Q9P286)
Chain of Serine/threonine-protein kinase PAK 5 (Homo sapiens) (Q9P286 whole entry, looked up): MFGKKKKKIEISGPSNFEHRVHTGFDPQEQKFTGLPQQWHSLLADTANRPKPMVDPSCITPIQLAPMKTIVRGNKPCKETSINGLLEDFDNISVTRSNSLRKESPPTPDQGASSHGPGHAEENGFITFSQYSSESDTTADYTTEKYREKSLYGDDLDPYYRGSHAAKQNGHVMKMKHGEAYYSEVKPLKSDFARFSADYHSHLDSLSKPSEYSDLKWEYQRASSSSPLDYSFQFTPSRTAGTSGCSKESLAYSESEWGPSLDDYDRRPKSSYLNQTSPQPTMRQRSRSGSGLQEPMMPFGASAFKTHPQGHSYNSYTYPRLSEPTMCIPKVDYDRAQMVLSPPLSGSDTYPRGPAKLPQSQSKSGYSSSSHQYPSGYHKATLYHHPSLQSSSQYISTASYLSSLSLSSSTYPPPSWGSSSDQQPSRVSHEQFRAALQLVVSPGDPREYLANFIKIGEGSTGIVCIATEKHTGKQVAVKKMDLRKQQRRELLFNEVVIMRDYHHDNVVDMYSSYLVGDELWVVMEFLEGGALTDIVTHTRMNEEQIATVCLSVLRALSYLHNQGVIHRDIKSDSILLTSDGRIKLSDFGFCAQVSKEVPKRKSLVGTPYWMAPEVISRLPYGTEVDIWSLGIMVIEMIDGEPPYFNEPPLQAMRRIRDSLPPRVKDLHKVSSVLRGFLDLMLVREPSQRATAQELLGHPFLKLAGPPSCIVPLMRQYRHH

[7] = target: T3, Tyrosine-protein kinase TXK (Homo sapiens) (UniProt P42681)
T3 sequence (whole entry): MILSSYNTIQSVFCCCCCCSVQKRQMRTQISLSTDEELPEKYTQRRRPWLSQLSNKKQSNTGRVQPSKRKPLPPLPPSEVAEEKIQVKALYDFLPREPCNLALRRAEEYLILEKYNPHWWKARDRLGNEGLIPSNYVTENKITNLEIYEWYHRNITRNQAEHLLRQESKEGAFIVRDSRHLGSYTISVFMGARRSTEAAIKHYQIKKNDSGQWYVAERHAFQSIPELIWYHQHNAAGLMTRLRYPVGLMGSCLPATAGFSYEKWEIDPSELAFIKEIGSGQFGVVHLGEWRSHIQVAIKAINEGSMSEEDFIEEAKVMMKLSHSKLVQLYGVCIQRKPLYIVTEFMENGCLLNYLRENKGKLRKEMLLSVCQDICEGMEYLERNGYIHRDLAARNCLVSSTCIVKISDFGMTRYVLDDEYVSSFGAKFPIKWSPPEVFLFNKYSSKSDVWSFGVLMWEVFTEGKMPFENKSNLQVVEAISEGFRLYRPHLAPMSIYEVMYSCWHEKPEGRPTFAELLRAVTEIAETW

[8] = target: Serine/threonine-protein kinase ULK1 (Homo sapiens) (UniProt O75385)
Chain of Serine/threonine-protein kinase ULK1 (Homo sapiens) (O75385 whole entry): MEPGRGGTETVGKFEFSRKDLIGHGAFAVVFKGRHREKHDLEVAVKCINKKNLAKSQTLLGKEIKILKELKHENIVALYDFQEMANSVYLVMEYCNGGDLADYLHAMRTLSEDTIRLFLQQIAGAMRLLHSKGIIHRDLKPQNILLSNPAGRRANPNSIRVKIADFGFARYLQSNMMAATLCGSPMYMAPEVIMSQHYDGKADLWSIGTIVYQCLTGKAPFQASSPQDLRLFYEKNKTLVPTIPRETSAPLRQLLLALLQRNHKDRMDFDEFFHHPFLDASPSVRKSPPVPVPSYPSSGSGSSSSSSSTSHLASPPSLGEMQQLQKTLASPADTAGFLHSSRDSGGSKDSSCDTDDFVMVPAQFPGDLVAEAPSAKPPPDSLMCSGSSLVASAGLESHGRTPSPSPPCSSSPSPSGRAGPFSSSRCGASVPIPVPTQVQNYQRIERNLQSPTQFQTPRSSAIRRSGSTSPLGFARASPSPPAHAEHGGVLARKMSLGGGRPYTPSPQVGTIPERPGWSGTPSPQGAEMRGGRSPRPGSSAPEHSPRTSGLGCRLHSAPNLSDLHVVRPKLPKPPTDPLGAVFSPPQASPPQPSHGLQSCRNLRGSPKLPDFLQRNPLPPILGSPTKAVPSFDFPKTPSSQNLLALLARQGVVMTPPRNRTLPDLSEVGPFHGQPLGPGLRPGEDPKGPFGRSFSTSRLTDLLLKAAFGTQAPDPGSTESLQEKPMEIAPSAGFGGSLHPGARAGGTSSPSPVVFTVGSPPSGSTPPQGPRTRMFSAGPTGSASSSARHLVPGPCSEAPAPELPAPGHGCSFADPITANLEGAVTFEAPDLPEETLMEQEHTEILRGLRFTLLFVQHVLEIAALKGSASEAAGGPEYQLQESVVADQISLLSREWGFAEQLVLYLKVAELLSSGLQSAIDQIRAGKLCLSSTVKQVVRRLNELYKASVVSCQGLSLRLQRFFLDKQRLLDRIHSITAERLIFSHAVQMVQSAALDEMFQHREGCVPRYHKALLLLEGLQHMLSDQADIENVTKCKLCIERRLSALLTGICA

[9] = Compound concentration 100.0 nM
[10] = Compound concentration 1000.0 nM

Measured: residual activity

Chain of Peripheral plasma membrane protein CASK (Homo sapiens) (O14936 whole entry): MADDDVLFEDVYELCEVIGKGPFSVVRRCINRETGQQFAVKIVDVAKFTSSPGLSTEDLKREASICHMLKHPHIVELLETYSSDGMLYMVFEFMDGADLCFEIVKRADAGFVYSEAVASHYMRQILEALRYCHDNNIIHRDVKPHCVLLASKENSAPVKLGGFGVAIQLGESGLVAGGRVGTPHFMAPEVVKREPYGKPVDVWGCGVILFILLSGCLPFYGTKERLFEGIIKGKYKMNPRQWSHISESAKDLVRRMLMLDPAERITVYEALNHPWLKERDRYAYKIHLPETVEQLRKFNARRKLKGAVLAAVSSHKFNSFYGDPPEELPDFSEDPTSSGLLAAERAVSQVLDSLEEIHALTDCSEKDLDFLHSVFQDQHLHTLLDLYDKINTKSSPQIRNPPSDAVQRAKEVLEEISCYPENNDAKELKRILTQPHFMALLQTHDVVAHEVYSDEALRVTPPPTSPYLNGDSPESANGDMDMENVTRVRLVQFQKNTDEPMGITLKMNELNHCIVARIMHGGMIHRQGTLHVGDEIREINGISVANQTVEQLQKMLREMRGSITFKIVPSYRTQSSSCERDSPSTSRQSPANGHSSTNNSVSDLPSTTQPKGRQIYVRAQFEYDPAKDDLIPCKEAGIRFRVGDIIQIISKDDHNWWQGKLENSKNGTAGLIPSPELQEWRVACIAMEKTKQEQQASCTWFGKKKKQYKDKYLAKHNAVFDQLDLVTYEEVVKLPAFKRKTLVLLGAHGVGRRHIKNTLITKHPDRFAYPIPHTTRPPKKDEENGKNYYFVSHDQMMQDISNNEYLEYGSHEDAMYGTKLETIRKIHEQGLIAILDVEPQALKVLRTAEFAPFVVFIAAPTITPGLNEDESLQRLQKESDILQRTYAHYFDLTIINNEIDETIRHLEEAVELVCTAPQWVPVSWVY

C[C@@H]1CN(c2cc(-c3n[nH]c4ccc(OC5(C)CC5)cc34)ncn2)C[C@H](C)O1 [MLi-2]
inactive: [1]; [9] 59% | [2]; [9] 89% | [3]; [9] 72% | [4]; [9] 64% | [5]; [9] 79% | [6]; [9] 86% | [7]; [9] 80% | [8]; [9] 80%

C[C@@H]1CN(c2cc(-c3nn(C)c4ccc(OC5(C)CC5)cc34)ncn2)C[C@H](C)O1 [MLi-2-NC]
inactive: [1]; [10] 93% | [2]; [10] 100% | [3]; [10] 100% | [4]; [10] 100% | [5]; [10] 67% | [6]; [10] 84% | [7]; [10] 100% | [8]; [10] 76%

Reference: ChEMBL document CHEMBL4507291 (2021)
